The values below are quoted from earlier work in patent US20170037184A1, “VITAMIN E-BASED NANOCARRIERS FOR DRUG DELIVERY AND METHODS OF MAKING AND USING THE SAME” (THE CORPORATION OF MERCER UNIVERSITY, priority 2014, published 2017).

The conditions of this data set: ethylenediamine group of DET conjugated to polyasparagine.

For `NCCNCCN` [DET, diethylenetriamine], the pKa1 was 9.5 and the pKa2 is listed as 6.0.
